Test results: patent publication US10829483B2, “Thiophene, manufacturing method thereof, and pharmaceutical application of same” (CSTONE PHARMACEUTICAL (SUZHOU) CO., LTD., priority 2016, dated 2020)

Target: URAT-1 (uric acid transporter) (Homo sapiens (Human), UniProt Q96S37)
Test: Inhibition of 14C uric acid transport by HEK293 cell line stably transfected with the URAT-1 gene
Assay type: cell-based
Details: URAT-1 (HEK293) cells; 14C-labelled uric acid 50 um, 10 min at 37° C.; read-out: IC50 (inhibition against URAT-1)
Description: Determination of the IC50 value of the inhibitory activity of the compound against uric acid reabsorption by the HEK293 cell line stably transfected with the URAT-1 (uric acid transporter) gene.
URAT-1 (HEK293) cell line: the HEK293 cell line stably transfected with the URAT-1 gene
cell culture medium: DMEM culture medium added 10% fetal bovine serum (FBS), 1% sodium pyruvate and […] G418.
Uric acid solution labeled by ^14C.
1) the supernatant of cell culture was aspirated, and cells was washed with 10 mL PBS.
2) preheated trypsin was added into the cell culture flask, and the cell culture flask was rotated to make trypsin covering onto the bottom of cell culture flask equably.
3) the cells were suspended with 10-15 mL of culture medium in each T150 flask, took 0.1 mL of cell suspension and diluted it with two volumes of trypan blue solution to count the cells.
4) cells were diluted to 2.5×10^5/mL with the culture medium, and the diluted cells were added into a rat tail collagen-coated 24-well plate (800 uL/well, 2×10^5 cells/well). The plate was incubated overnight at 37° C. in a 5% CO2 incubator.
1) cells were seeded into 24-well plate, and supernatant was discarded after 16-18 h. The cells were washed twice using 600 ul HBSS buffer.
2) HBSS buffer was removed and 180 ul of HBSS buffer was added into each well again.
1) compounds were dissolved into 100% DMSO, and diluted into 6 concentration points by 3-fold dilution, or into 2 concentration points by 10-fold dilution, and the highest starting concentration was 50 mM.
2) 5 ul DMSO solution in step 1) was transferred into 120 ul of HBSS buffer to make a 25-fold dilution.
3) 10 ul diluted solution in step 2) was added into 24-well plate, and the plate was incubated for 15 min at 37° C. in a 5% CO2 incubator. The final concentration of DMSO is 0.2%. The control well contained 0.2% DMSO without compound.
^14C-labelled uric acid was diluted and added into plate, and the final concentration is 50 um. The plate was incubated for 10 min at 37° C. in a 5% CO2 incubator. After supernatant was discarded, cells were washed with HBSS buffer twice. Cells was lysed with 0.1M NaOH. And then cell lysis solution was collected into liquid scintillation tube and added with liquid scintillation solution. The signal was read by liquid scintillation counter Tri-Carb. e) data analysis URAT-1 inhibition by the treatment of the compounds was analyzed by calculating the percentage of inhibition. Non-linear fitting analysis of percent inhibition (inh %) data using GraphPad Prism software to generate the IC50 value.

Chain of URAT-1 (uric acid transporter) (Q96S37 whole entry): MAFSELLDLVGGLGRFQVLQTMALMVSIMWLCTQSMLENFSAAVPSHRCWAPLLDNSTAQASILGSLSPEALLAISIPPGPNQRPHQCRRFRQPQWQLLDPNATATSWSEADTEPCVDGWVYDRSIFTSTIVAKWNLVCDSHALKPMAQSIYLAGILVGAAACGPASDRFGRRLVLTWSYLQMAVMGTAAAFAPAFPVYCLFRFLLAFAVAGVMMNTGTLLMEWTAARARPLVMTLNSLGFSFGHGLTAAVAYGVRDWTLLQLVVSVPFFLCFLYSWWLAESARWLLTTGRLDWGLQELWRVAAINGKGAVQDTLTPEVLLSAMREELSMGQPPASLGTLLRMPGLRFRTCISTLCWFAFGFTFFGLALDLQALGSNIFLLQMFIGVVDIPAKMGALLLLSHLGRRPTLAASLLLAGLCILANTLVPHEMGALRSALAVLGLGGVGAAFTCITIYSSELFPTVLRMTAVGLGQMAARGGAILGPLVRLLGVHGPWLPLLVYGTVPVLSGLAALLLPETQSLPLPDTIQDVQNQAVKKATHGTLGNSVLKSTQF

Row | Compound | IC50 [µM]
1 | COc1ccc(-c2sc(-n3c(Br)nnc3SCC(=O)O)cc2C)cc1 [WX083] | > 20
2 | CC(Sc1nncn1-c1sc(C2CC2)c2c1CCCC2)C(=O)O (centres unmarked) [WX036] | > 20
3 | O=C(O)CSc1nnc(Br)n1-c1sc(-c2ccc(Cl)cc2)c2c1CCC2 [WX040] | > 20
4 | CC(Sc1nnc(Br)n1-c1sc(-c2ccccc2)c2c1CCCC2)C(=O)O (centres unmarked) [WX004] | 2 to 20
5 | CC(C)(Sc1nnc(Br)n1-c1sc(C2CC2)c2c1CCC(F)(F)C2)C(=O)O [WX033] | < 2
6 | Cc1cc(-n2c(Br)nnc2SC(C)(C)C(=O)O)sc1-c1ccccc1 [WX081] | 2 to 20
7 | CC1(C)Cc2c(C3CC3)sc(-n3c(Br)nnc3SC(C)(C)C(=O)O)c2C1 [WX065] | < 2
8 | CCC(C)(Sc1nnc(Br)n1-c1sc(C2CC2)c2c1CCC2)C(=O)O (centres unmarked) [WX063] | < 2
9 | Cc1cc(-n2c(Br)nnc2SCC(=O)O)sc1-c1ccc(C(C)(C)C)cc1 [WX085] | > 20
10 | COC(=O)C(C)Sc1nncn1-c1cc(Br)c(-c2ccccc2)s1 (centres unmarked) [WX075] | 2 to 20
11 | Cc1cc(-n2c(Br)nnc2SCC(=O)O)sc1-c1ccccc1 [WX079] | 2 to 20
12 | Cn1cc(-c2sc(-n3c(Br)nnc3SCC(=O)O)c3c2CCC3)cn1 [WX047] | > 20
13 | O=C(O)CSc1nnc(Br)n1-c1sc(-c2ccc(F)cc2)c2c1CCC2 [WX038] | > 20
14 | O=C(O)CSc1nncn1-c1sc(-c2cccc(Cl)c2)c2c1CCC2 [WX052] | > 20
15 | C[C@@H](Sc1nnc(Br)n1-c1sc(C2CC2)c2c1CCCC2)C(=O)O [WX031] | < 2
16 | CC(C)(Sc1nnc(Br)n1-c1cc(Cl)c(C2CC2)s1)C(=O)O [WX067] | < 2
17 | CNc1c(Br)cc(-c2sc(-n3cnnc3SC(C)(C)C(=O)O)c3c2CCCC3)cc1Br [WX024] | 2 to 20
18 | O=C(O)CSc1nnc(Br)n1-c1sc(-c2ccc(F)cc2)c2c1CCCC2 [WX006] | 2 to 20
19 | O=C(O)C1(Sc2nnc(Br)n2-c2sc(C3CC3)c3c2CCC3)CCCC1 [WX060] | < 2
20 | O=C(O)CSc1nnc(Br)n1-c1sc(-c2cc(F)cc(F)c2)c2c1CCCC2 [WX009] | < 2
21 | CC(Sc1nnc(Br)n1-c1sc(C2CC2)c2c1CCC2)C(=O)O (centres unmarked) [WX061] | < 2
22 | Cn1cc(-c2sc(-n3cnnc3SCC(=O)O)c3c2CCC3)cn1 [WX056] | > 20
23 | COC(=O)C(C)(C)Sc1nncn1-c1cc(Br)c(-c2ccccc2)s1 [WX077] | > 20
24 | CCOC(=O)C(C)(C)Sc1nncn1-c1sc(C(=O)NC(O)CCBr)c2c1CCCC2 (centres unmarked) [WX103] | 2 to 20
25 | CC(C)(C)c1ccc(-c2sc(-n3c(Br)nnc3SCC(=O)O)c3c2CCC3)cc1 [WX046] | > 20
26 | O=C(O)CSc1nnc(Br)n1-c1sc(-c2ccccc2)c2c1OCCO2 [WX099] | > 20
27 | O=C(O)CSc1nnc(Br)n1-c1sc(-c2cccc(Cl)c2)c2c1CCC2 [WX045] | > 20

Row | Compound | IC50 [µM]
28 | CCOC(=O)CSc1nncn1-c1cc(Br)c(C2CC2)s1 [WX072] | > 20
29 | Cc1ccc(-c2sc(-n3c(Br)nnc3SCC(=O)O)c3c2CCC3)cc1 [WX042] | > 20
30 | O=C(O)CSc1nnc(Br)n1-c1sc(-c2cccc(F)c2)c2c1CCC2 [WX039] | > 20
31 | COc1ccc(-c2sc(-n3c(Br)nnc3SC(C)C(=O)O)c3c2CCCC3)cc1 (centres unmarked) [WX016] | 2 to 20
32 | CC(C)(Sc1nnc(Br)n1-c1sc(-c2ccccc2)c2c1CCCC2)C(=O)O [WX005] | < 2
33 | CC(C)(Sc1nnc(Br)n1-c1sc(C2CC2)c2c1CCCC2)C(=O)O [WX027] | < 2
34 | CCOC(=O)C(C)(C)Sc1nnc(Br)n1-c1sc(C(=O)Nc2ccc(F)c(F)c2)c2c1CCCC2 [WX100] | > 20
35 | CC(C)(Sc1nnc(Br)n1-c1sc(-c2ccncn2)c2c1CCCC2)C(=O)O [WX025] | > 20
36 | Cc1cc(-n2c(Br)nnc2SC2(C(=O)O)CCC2)sc1C1CC1 [WX093] | < 2
37 | Cc1cc(-n2c(Br)nnc2SC(C(=O)O)c2ccccc2)sc1C1CC1 (centres unmarked) [WX090] | 2 to 20
38 | Cc1cc(-n2c(Br)nnc2SC(C(=O)O)C(C)C)sc1C1CC1 (centres unmarked) [WX088] | < 2
39 | CC(C)(Sc1nnc(Br)n1-c1sc(C2CC2)c2c1CCC2)C(=O)NO [WX102] | 2 to 20
40 | Cc1cc(-n2c(Br)nnc2SC(C)C(=O)O)sc1C1CC1 (centres unmarked) [WX094] | < 2
41 | CC(C)(Sc1nnc(Br)n1-c1sc(C2CC2)c2c1CCC2)C(=O)O [WX062] | < 2
42 | CC(Sc1nnc(Br)n1-c1cc(Cl)c(C2CC2)s1)C(=O)O (centres unmarked) [WX070] | 2 to 20
43 | O=C(O)C1(Sc2nnc(Br)n2-c2sc(C3CC3)c3c2CCC3)CCC1 [WX059] | < 2
44 | Cc1cc(-n2c(Br)nnc2SC(C)C(=O)O)sc1-c1ccc(Cl)cc1 (centres unmarked) [WX086] | 2 to 20
45 | CC(C)(Sc1nnc(Br)n1-c1sc(-c2ccc(F)c(F)c2)c2c1CCCC2)C(=O)O [WX013] | < 2
46 | O=C(O)C(Sc1nnc(Br)n1-c1sc(C2CC2)c2c1CCC2)c1ccccc1 (centres unmarked) [WX064] | 2 to 20
47 | Cc1cc(-n2c(Br)nnc2SCC(=O)O)sc1-c1ccc(C(F)(F)F)cc1 [WX084] | > 20
48 | Cc1cc(-n2c(Br)nnc2SC(C)C(=O)O)sc1-c1cccc(F)c1 (centres unmarked) [WX087] | 2 to 20
49 | O=C(O)C1(Sc2nnc(Br)n2-c2sc(C3CC3)c3c2CCCC3)CCCC1 [WX030] | < 2
50 | Cc1cc(-n2c(Br)nnc2SC2(C(=O)O)CCCC2)sc1C1CC1 [WX092] | < 2
51 | O=C(O)CSc1nnc(Br)n1-c1sc(-c2ccc(Cl)c(Cl)c2)c2c1CCCC2 [WX019] | 2 to 20
52 | Cc1cc(-n2c(Br)nnc2SCC(=O)O)sc1C1CC1 [WX078] | > 20
53 | O=C(O)CSc1nncn1-c1sc(-c2ccc(F)c(F)c2)c2c1CCCC2 [WX021] | > 20
54 | COc1ccc(-c2sc(-n3c(Br)nnc3SCC(=O)O)c3c2CCCC3)cc1 [WX017] | 2 to 20

Row | Compound | IC50 [µM]
55 | CC1(C)CCc2c(-n3c(Br)nnc3SC(C)(C)C(=O)O)sc(C3CC3)c2C1 [WX035] | < 2
56 | CC(C)(C)c1ccc(-c2sc(-n3cnnc3SCC(=O)O)c3c2CCC3)cc1 [WX048] | > 20
57 | CC(Sc1nnc(Br)n1-c1sc(C2CC2)c2c1CCCC2)C(=O)O (centres unmarked) [WX026] | < 2
58 | CC(Sc1nnc(Br)n1-c1sc(-c2ccc(S(C)(=O)=O)cc2)c2c1CCCC2)C(=O)O (centres unmarked) [WX015] | > 20
59 | O=C(O)CSc1nncn1-c1sc(C2CC2)c2c1CCCC2 [WX002] | > 20
60 | O=C(O)CSc1nncn1-c1sc(-c2cccc(F)c2)c2c1CCCC2 [WX020] | > 20
61 | COC(=O)CSc1nncn1-c1cc(Br)c(-c2ccccc2)s1 [WX073] | > 20
62 | O=C(O)CSc1nnc(Br)n1-c1sc(-c2ccc(F)c(F)c2)c2c1CCCC2 [WX008] | 2 to 20
63 | Cc1ccc(-c2sc(-n3cnnc3SCC(=O)O)c3c2CCC3)cc1 [WX050] | > 20
64 | O=C(O)CSc1nnc(Br)n1-c1sc(C2CC2)c2c1CCC2 [WX058] | > 20
65 | O=C(O)C1(Sc2nnc(Br)n2-c2cc(Cl)c(C3CC3)s2)CCC1 [WX068] | 2 to 20
66 | C[C@H](Sc1nnc(Br)n1-c1sc(C2CC2)c2c1CCCC2)C(=O)O [WX032] | < 2
67 | COc1ccc(-c2sc(-n3cnnc3SCC(=O)O)cc2C)cc1 [WX096] | > 20
68 | CC1(C)CCc2c(C3CC3)sc(-n3c(Br)nnc3SC(C)(C)C(=O)O)c2C1 [WX034] | < 2
69 | COc1ccc(-c2sc(-n3c(Br)nnc3SCC(=O)O)c3c2CCC3)cc1 [WX043] | > 20
70 | O=C(O)CSc1nnc(Br)n1-c1sc(-c2ccc(C(F)(F)F)cc2)c2c1CCC2 [WX044] | > 20
71 | Cc1cc(-n2cnnc2SCC(=O)O)sc1-c1ccc(C(C)(C)C)cc1 [WX098] | > 20
72 | CCOC(=O)C(C)Sc1nncn1-c1cc(Br)c(C2CC2)s1 (centres unmarked) [WX074] | > 20
73 | O=C(O)CSc1nnc(Br)n1-c1sc(-c2ccc(Cl)c(Cl)c2)c2c1CCC2 [WX041] | > 20
74 | CN(C)c1ccc(-c2sc(-n3cnnc3SCC(=O)O)c3c2CCC3)cc1Br [WX057] | 2 to 20
75 | O=C(O)CSc1nnc(Br)n1-c1sc(-c2ccccc2)c2c1CCC2 [WX037] | > 20
76 | COc1ccc(-c2sc(-n3cnnc3SCC(=O)O)c3c2CCC3)cc1 [WX049] | > 20
77 | CC(C)c1nnc(SCC(=O)O)n1-c1sc(C2CC2)c2c1CCC2 [WX101] | > 20
78 | O=C(O)CSc1nncn1-c1sc(-c2ccc(Cl)cc2)c2c1CCC2 [WX054] | > 20
79 | O=C(O)CSc1nncn1-c1sc(-c2cc(F)cc(F)c2)c2c1CCCC2 [WX022] | > 20
80 | CCOC(=O)C(C)(C)Sc1nncn1-c1cc(Br)c(C2CC2)s1 [WX076] | 2 to 20
